Read-outs that look alike come from different tables or passages of the source.
How the values were obtained:
Type in all cases: cell-based
[1] = tested on: chloroquine-resistant P. falciparum (K1) strain; assay: In vitro antimalarial activity, pLDH assay; details: Plasmodium falciparum
Experimental: P. falciparum was cultured according to the method of Trager and Jensen with some modifications. The parasites were cultured in noninfected human red blood cells (2% hematocrit) using RPMI 1640 medium that was supplemented with 0.5% Albumax II, 10 µg/ml hypoxanthine, 2.5 µg/ml gentamicin, 4.8 mg/ml HEPES and buffered with 2 mg/ml sodium bicarbonate as described previously in our previous study. All the chemicals and reagents used for culturing were purchased from Sigma–Aldrich, New Delhi, India and Gibco, Waltham, MA USA. The culture was maintained at 37 °C in a CO2 incubator. The culture medium was changed, and Giemsa-stained slides were prepared daily to monitor parasitemia.
The in vitro antimalarial activity of the isolated compounds was assessed on cultured P. falciparum using the Plasmodium lactate dehydrogenase (pLDH) assay described by Makler with some modifications. Briefly, the compounds were individually dissolved in DMSO to obtain a stock solution of 1 mM, and the solution was then diluted to a final working concentration of 0.78–100 µM. […] Parasitized red blood cells (2% hematocrit, 2% parasitemia) were aliquoted into a 96-well cell culture plate, and then the infected red cells were exposed. The tested compound was added to 96-well plates and incubated at 37 °C for 72 h in a CO2 incubator. At the end of incubation, the plates were subjected to three freeze/thaw cycles (frozen at -20 °C and thawed at 37 °C) for complete hemolysis. The lysed cells were transferred to a new 96-well plate that contained a mixture of 100 µl of Malstat reagent and 20 µl of nitroblue tetrazolium/phenazine ethosulfate solution (Calbiochem®, Sigma–Aldrich, New Delhi, India) and were incubated for 1 h in the dark. The experiments were performed in triplicate. These solutions were used to determine the activity of the lactate dehydrogenase (LDH) enzyme in the cultures. When LDH was present, a purple product was formed, and the optical density was measured using a microplate reader at a wavelength of 650 nm. The concentrations at which 50% inhibition of parasite growth (IC50) was calculated using a nonlinear regression curve contained in GraphPad PRISM version 6 (GraphPad Software, Inc., La Jolla, CA, USA).

[2] = In vitro cytotoxicity, MTT assay, Vero cells; details: African green monkey, 5 to 80 µM, read-out: CC50 Vero cell
Experimental: (§1) The toxicity of isolated compounds was assessed by a 3-(4,5-dimethythiazol2-yl)-2,5-diphenyl tetrazolium bromide (MTT) assay according to a previous method. Briefly, Vero cells, a normal mammalian cell line or HepG2 human hepatoma cell line, were seeded into 96-well plates (10^4 cell/ml) and incubated for 24 h at 37 °C with 5% CO2. Cells were then treated with various concentrations of the tested compounds ranging from 5 to 80 µM, and the final concentration of DMSO in the tested dilutions was not higher than 1% for 48 h at 37 °C with 5% CO2. Subsequently, MTT solution was added to each well, and the plate was incubated for 2 h in a CO2 incubator. The medium was then removed, and 100 µl of DMSO was added to each well. The negative control was performed using growth medium alone instead of the tested compounds, while doxorubicin (Sigma–Aldrich, New Delhi, India) was used as the positive toxic control. The assay was performed in triplicates. Finally, the optical density was determined using a microplate reader at a wavelength of 590 nm. The 50% cytotoxic concentration (CC50) was calculated using a nonlinear regression curve contained in GraphPad PRISM version 6 (GraphPad Software, Inc., La Jolla, CA, USA).

[3] = In vitro cytotoxicity, MTT assay, HepG2 cells; details: human, 5 to 80 µM
Experimental: as §1

[4] = P. falciparum K1, pLDH assay, 72 h, mean ± S.D. of three determinations, read-out: IC50 K1

| Structure (SMILES) | IC50 ([1]; P. falciparum K1, pLDH assay, 72 h, positive control, IC50 unit expressed in nM (footnote), read-out: IC50 K1 (positive control)) [nM] | IC50 [1, 4] [nM] | CC50 at 48 h ([2]; Vero cells) [µM] | CC50 at 48 h ([3]; HepG2 cells) [µM] | IC50 ([1]; K1, 72 h, read-out: IC50 K1) [nM] | CC50 at 48 h [2] [µM] | CC50 at 48 h [3] [µM] |
| --- | --- | --- | --- | --- | --- | --- | --- |
| C[C@H]1[C@H](OC(=O)CCC(=O)O)O[C@@H]2O[C@@]3(C)CC[C@H]4[C@H](C)CC[C@@H]1[C@@]24OO3 [Artesunate, reference compound] | 0.53 ± 0.04 | – | – | – | – | – | – |
| C=C(C)[C@@H]1CC[C@]2(C)CC[C@]3(C)[C@H](CC[C@@H]4[C@@]5(C)CC[C@H](O)C(C)(C)[C@@H]5CC[C@]43C)[C@@H]12 [Compound 1, lupeol] | – | 18800 ± 3450 | > 80 | 29.3 ± 1.47 | – | – | – |
| O=c1c2ccccc2oc2c(O)cccc12 [Compound 3, 4-hydroxyxanthone] | – | – | – | – | 68600 ± 2540 | 48.1 ± 1.68 | 46.1 ± 1.66 |
| O=c1c2cc(O)ccc2oc2cccc(O)c12 [Compound 4, 1,7-dihydroxyxanthone] | – | – | 7.9 ± 0.9 | 13.3 ± 1.12 | 41700 ± 2230 | – | – |
| O=c1c2ccc(O)cc2oc2cccc(O)c12 [Compound 8, 1,6-dihydroxyxanthone] | – | 47900 ± 5160 | – | – | – | > 80 | > 80 |
| O=c1c2ccccc2oc2ccc(O)cc12 [Compound 12, 2-hydroxyxanthone] | – | – | – | – | 75000 ± 880 | > 80 | > 80 |
| COc1cccc2c1C(=O)c1c(O)c3c(c(O)c1C2=O)C[C@@](O)(C(=O)CO)C[C@@H]3O[C@H]1C[C@H](N)[C@H](O)[C@H](C)O1 [Doxorubicin, reference compound] | – | – | 1.46 ± 0.16 | 1.11 ± 0.05 | – | – | – |

The next lines start with results.

| IC50 ([1]; P. falciparum K1, pLDH assay, 72 h, positive control, IC50 unit expressed in nM (footnote), read-out: IC50 K1 (positive control)) [nM] | IC50 [1, 4] [nM] | Structure (SMILES) | CC50 at 48 h ([2]; Vero cells) [µM] | CC50 at 48 h ([3]; HepG2 cells) [µM] | IC50 ([1]; K1, 72 h, read-out: IC50 K1) [nM] | CC50 at 48 h [2] [µM] | CC50 at 48 h [3] [µM] |
| --- | --- | --- | --- | --- | --- | --- | --- |
| – | 21000 ± 3560 | COc1ccc2c(=O)c3cccc(O)c3oc2c1O [Compound 2, 4,5-dihydroxy-3-methoxyxanthone] | > 80 | > 80 | – | – | – |
| – | 45600 ± 3120 | CC(C)CC(=O)c1c2c(c3oc(=O)cc(-c4ccccc4)c3c1O)C=CC(C)(C)O2 [Compound 6, mammea A/AA cyclo D] | > 80 | > 80 | – | – | – |
| – | 49890 ± 420 | CC(C)CC(=O)c1c2c(c3oc(=O)cc(-c4ccccc4)c3c1O)C[C@H](C(C)(C)O)O2 [Compound 7, mammea A/AA cyclo F] | > 80 | > 80 | – | – | – |
| – | 9570 ± 1590 | COc1cc2c(=O)c3c(O)cccc3oc2c(OC)c1OC [Compound 9, 1-hydroxy-5,6,7-trimethoxyxanthone] | > 80 | > 80 | – | – | – |
| – | 15500 ± 2630 | O=c1c2cccc(O)c2oc2c(O)c(O)ccc12 [Compound 10, 3,4,5-trihydroxyxanthone] | > 80 | > 80 | – | – | – |
| – | 29300 ± 4440 | COc1cccc2oc3c(O)cccc3c(=O)c12 [Compound 11, 5-hydroxy-1-methoxyxanthone] | > 80 | > 80 | – | – | – |
| – | 22300 ± 1670 | COc1ccc2c(=O)c3c(O)cccc3oc2c1O [Compound 13, 1,5-dihydroxy-6-methoxyxanthone] | > 80 | 30.5 ± 1.49 | – | – | – |
